The values below come from patent US20240368150A1 (Hoffmann-La Roche Inc., priority 2021, published 2024).

Test [1] deals with primary human T-cells.
Test [2] relates to primary human T-cells. Description: Proliferation assay after 5 days (CellTiter-Glo, CD3 stimulation; PBS counter screen). The test is classed as cell-based. Particulars: Homo sapiens, T-cell, 120 h, CD3 stimulation; for Emax: 5 days, normalized to reference compound A1 as stimulator control = 100%, DMSO neutral control, read-out: Emax proliferation (% activation); for EC50: primary human T-cells, CellTiter-Glo after 5 days, EC50 of fitted sigmoidal curve, read-out: Tcell Proliferation CD3 EC50. The gist of the method: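 Compounds were added to medium-only plates, and proliferation was read 5 days later as luminescence from CellTiter-Glo 2.0, whose ATP signal is proportional to cell number. Plates and reagent were equilibrated to room temperature for 45 min before an equal volume of reagent was added, with 15 min rocking.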
Background: In ATP-based viability assays light output follows the ATP content of the culture.

Where two headings read alike, the source gives them in different places.

In turn, `CC(C)(CN1CCCC1=O)c1nnc(-c2cc3c(cc2F)S(=O)(=O)C[C@H](N)C(=O)N3Cc2ccc(Cl)cc2)o1` [Example 64, (3R)-3-amino-5-[(4-chlorophenyl)methyl]-7-[5-[1,1-dimethyl-2-(2-oxopyrrolidin-1-yl)ethyl]-1,3,4-oxadiazol-2-yl]-8-fluoro-1,1-dioxo-2,3-dihydro-1λ^6,5-benzothiazepin-4-one] yielded an EC50 in the test on primary human T-cells [1] of 4350 nM. For the same molecule, in the test on primary human T-cells [2], the Emax worked out at 36% and the EC50 was above 10000 nM.
The matching figures for `N[C@H]1CS(=O)(=O)c2cc(F)c(-c3nnc(C4(CO)CC4)o3)cc2N(Cc2ccc(Cl)cc2)C1=O` [Example 65, (3R)-3-amino-5-[(4-chlorophenyl)methyl]-8-fluoro-7-[5-[1-(hydroxymethyl)cyclopropyl]-1,3,4-oxadiazol-2-yl]-1,1-dioxo-2,3-dihydro-1λ^6,5-benzothiazepin-4-one]: 3850 nM, 77% and 1060 nM.
On the same counts, the results for `CC(C)(CN1CCCCC1=O)c1nnc(-c2cc3c(cc2F)S(=O)(=O)C[C@H](N)C(=O)N3Cc2ccc(Cl)cc2)o1` [Example 66, (3R)-3-amino-5-[(4-chlorophenyl)methyl]-7-[5-[1,1-dimethyl-2-(2-oxo-1-piperidyl)ethyl]-1,3,4-oxadiazol-2-yl]-8-fluoro-1,1-dioxo-2,3-dihydro-1λ^6,5-benzothiazepin-4-one] are 1330 nM, 112% and 2070 nM.
Take `N[C@H]1CS(=O)(=O)c2cc(F)c(-c3nnc(CCC(F)(F)F)o3)cc2N(Cc2ccc(Cl)cc2)C1=O` [Example 67, (3R)-3-Amino-5-[(4-chlorophenyl)methyl]-8-fluoro-1,1-dioxo-7-[5-(3,3,3-trifluoropropyl)-1,3,4-oxadiazol-2-yl]-2,3-dihydro-1λ^6,5-benzothiazepin-4-one]: the EC50 came out at 199 nM in the test on primary human T-cells [1] and 112 nM in the test with primary human T-cells [2]. Moreover, the Emax with primary human T-cells [2] came out at 165%.
The matching figures for `N[C@H]1CS(=O)(=O)c2cc(F)c(-c3nnc(CC(F)(F)F)o3)cc2N(Cc2ccc(Cl)cc2)C1=O` [Example 68, (3R)-3-Amino-5-[(4-chlorophenyl)methyl]-8-fluoro-1,1-dioxo-7-[5-(2,2,2-trifluoroethyl)-1,3,4-oxadiazol-2-yl]-2,3-dihydro-1λ^6,5-benzothiazepin-4-one]: above 20000 nM, 5140 nM and 91%.
The matching figures for `CC(C)(N)c1nnc(-c2cc3c(cc2F)S(=O)(=O)C[C@H](N)C(=O)N3Cc2ccc(Cl)cc2)o1` [Example 69]: 1670 nM, 4770 nM and 171%.
On the same counts, the results for `CC(C)(F)c1nnc(-c2cc3c(cc2F)S(=O)(=O)C[C@H](N)C(=O)N3Cc2ccc(Cl)cc2)o1` [Example 70, (3R)-3-Amino-5-[(4-chlorophenyl)methyl]-8-fluoro-7-[5-(1-fluoro-1-methyl-ethyl)-1,3,4-oxadiazol-2-yl]-1,1-dioxo-2,3-dihydro-1λ^6,5-benzothiazepin-4-one] are 74.6 nM, 214 nM and 255%.
In the test on primary human T-cells [1], `N[C@H]1CS(=O)(=O)c2cc(F)c(-c3nnc(CC(F)F)o3)cc2N(Cc2ccc(Cl)cc2)C1=O` [Example 71, (3R)-3-Amino-5-[(4-chlorophenyl)methyl]-7-[5-(2,2-difluoroethyl)-1,3,4-oxadiazol-2-yl]-8-fluoro-1,1-dioxo-2,3-dihydro-1λ^6,5-benzothiazepin-4-one] registered an EC50 above 20000 nM. Further, in the test with primary human T-cells [2], the Emax amounted to 71% and the EC50 is below 162 nM.
Take `N[C@H]1CS(=O)(=O)c2cc(F)c(-c3nnc(C4CCC(F)(F)CC4)o3)cc2N(Cc2ccc(Cl)cc2)C1=O` [Example 73, (3R)-3-Amino-5-[(4-chlorophenyl)methyl]-7-[5-(4,4-difluorocyclohexyl)-1,3,4-oxadiazol-2-yl]-8-fluoro-1,1-dioxo-2,3-dihydro-1λ^6,5-benzothiazepin-4-one]: the EC50 in the test with primary human T-cells [1] stood at 50.2 nM; with primary human T-cells [2], 126 nM. Further, the Emax with primary human T-cells [2] was determined as 194%.
The matching figures for `N[C@H]1CS(=O)(=O)c2cc(F)c(-c3nnc(C4CCC(F)(F)C4)o3)cc2N(Cc2ccc(Cl)cc2)C1=O` (stereo partly drawn) [Example 75, (3R)-3-Amino-5-[(4-chlorophenyl)methyl]-7-[5-(3,3-difluorocyclopentyl)-1,3,4-oxadiazol-2-yl]-8-fluoro-1,1-dioxo-2,3-dihydro-1λ^6,5-benzothiazepin-4-one]: 114 nM, 35.1 nM and 161%.
On the same counts, the results for `N[C@H]1CS(=O)(=O)c2cc(F)c(-c3nnc(C4CCCC4(F)F)o3)cc2N(Cc2ccc(Cl)cc2)C1=O` (stereo partly drawn) [Example 76, (3R)-3-Amino-5-[(4-chlorophenyl)methyl]-7-[5-(2,2-difluorocyclopentyl)-1,3,4-oxadiazol-2-yl]-8-fluoro-1,1-dioxo-2,3-dihydro-1λ^6,5-benzothiazepin-4-one] are 749 nM, 1080 nM and 173%.
`N[C@H]1CS(=O)(=O)c2cc(F)c(-c3nnc(CC4CC(F)(F)C4)o3)cc2N(Cc2ccc(Cl)cc2)C1=O` [Example 77, (3R)-3-Amino-5-[(4-chlorophenyl)methyl]-7-[5-[(3,3-difluorocyclobutyl)methyl]-1,3,4-oxadiazol-2-yl]-8-fluoro-1,1-dioxo-2,3-dihydro-1λ^6,5-benzothiazepin-4-one]: the EC50 in the test with primary human T-cells [1] came out at 341 nM. For the same molecule, in the test on primary human T-cells [2], the Emax was 183%.
Regarding `N[C@H]1CS(=O)(=O)c2cc(F)c(-c3nnc(CC4CCOCC4)o3)cc2N(Cc2ccc(Cl)cc2)C1=O` [Example 78, (3R)-3-Amino-5-[(4-chlorophenyl)methyl]-8-fluoro-1,1-dioxo-7-[5-(tetrahydropyran-4-ylmethyl)-1,3,4-oxadiazol-2-yl]-2,3-dihydro-1λ^6,5-benzothiazepin-4-one], the values for the EC50 with primary human T-cells [1] and in the test with primary human T-cells [2] were 2350 nM and 1110 nM, respectively. Further, the Emax with primary human T-cells [2] came to 86%.
On the same counts, the results for `N[C@H]1CS(=O)(=O)c2cc(F)c(-c3nnc(C4CC(F)(F)C4)o3)cc2N(Cc2ccc(Cl)cc2)C1=O` [Example 80, (3R)-3-Amino-5-[(4-chlorophenyl)methyl]-7-[5-(3,3-difluorocyclobutyl)-1,3,4-oxadiazol-2-yl]-8-fluoro-1,1-dioxo-2,3-dihydro-1λ^6,5-benzothiazepin-4-one] are 176 nM, 81.5 nM and 278%.
The matching figures for `N[C@H]1CS(=O)(=O)c2cc(F)c(-c3nnc(C4CCC4(F)F)o3)cc2N(Cc2ccc(Cl)cc2)C1=O` (stereo partly drawn) [Example 81, (3R)-3-Amino-5-[(4-chlorophenyl)methyl]-7-[5-(2,2-difluorocyclobutyl)-1,3,4-oxadiazol-2-yl]-8-fluoro-1,1-dioxo-2,3-dihydro-1λ^6,5-benzothiazepin-4-one]: 1270 nM, 521 nM and 185%.
Regarding `N[C@H]1CS(=O)(=O)c2cc(F)c(-c3nnc(C4CCOCC4)o3)cc2N(Cc2ccc(Cl)cc2)C1=O` [Example 82, (3R)-3-Amino-5-[(4-chlorophenyl)methyl]-8-fluoro-1,1-dioxo-7-(5-tetrahydropyran-4-yl-1,3,4-oxadiazol-2-yl)-2,3-dihydro-1λ^6,5-benzothiazepin-4-one], the EC50 in the test on primary human T-cells [1] came to 631 nM. Also, in the test on primary human T-cells [2], the Emax was found to be 148% and the EC50 stood at 728 nM.
On the same counts, the results for `N[C@H]1CS(=O)(=O)c2cc(F)c(-c3nnc(CCF)o3)cc2N(Cc2ccc(Cl)cc2)C1=O` [Example 83, (3R)-3-Amino-5-[(4-chlorophenyl)methyl]-8-fluoro-7-[5-(2-fluoroethyl)-1,3,4-oxadiazol-2-yl]-1,1-dioxo-2,3-dihydro-1λ^6,5-benzothiazepin-4-one] are 470 nM, 27% and above 20000 nM.
On the same counts, the results for `CC(C)c1nnc(-c2cc3c(cc2F)S(=O)(=O)C[C@H](N)C(=O)N3Cc2ccc(Cl)cc2)o1` [Example 84, (3R)-3-Amino-5-[(4-chlorophenyl)methyl]-8-fluoro-7-(5-isopropyl-1,3,4-oxadiazol-2-yl)-1,1-dioxo-2,3-dihydro-1λ^6,5-benzothiazepin-4-one] are 450 nM, 191% and 226 nM.
On the same counts, the results for `N[C@H]1CS(=O)(=O)c2cc(F)c(-c3nnc(C4CC4)o3)cc2N(Cc2ccc(Cl)cc2)C1=O` [Example 85, (3R)-3-Amino-5-[(4-chlorophenyl)methyl]-7-(5-cyclopropyl-1,3,4-oxadiazol-2-yl)-8-fluoro-1,1-dioxo-2,3-dihydro-1λ^6,5-benzothiazepin-4-one] are 470 nM, 100% and 237 nM.
In the test with primary human T-cells [1], `CN(C)C(=O)c1nnc(-c2cc3c(cc2F)S(=O)(=O)C[C@H](N)C(=O)N3Cc2ccc(Cl)cc2)o1` [Example 87, N,N-dimethyl-5-[(3R)-3-amino-5-[(4-chlorophenyl)methyl]-8-fluoro-1,1,4-trioxo-2,3-dihydro-1λ^6,5-benzothiazepin-7-yl]-1,3,4-oxadiazole-2-carboxamide] came in with an EC50 of 1530 nM. In addition, in the test with primary human T-cells [2], the Emax was 82% and the EC50 is 2740 nM.
The matching figures for `CC1(c2nnc(-c3cc4c(cc3F)S(=O)(=O)C[C@H](N)C(=O)N4Cc3ccc(Cl)cc3)o2)CCCO1` (stereo partly drawn) [Example 88, (3R)-3-amino-5-[(4-chlorophenyl)methyl]-8-fluoro-7-[5-(2-methyltetrahydrofuran-2-yl)-1,3,4-oxadiazol-2-yl]-1,1-dioxo-2,3-dihydro-1λ^6,5-benzothiazepin-4-o]: 689 nM, 97% and 242 nM.
